Measurements from patent publication US8119564B2, “Herbicidal control using sulfentrazone and metsulfuron” (FMC Corporation, priority 2009, dated 2012).

Legend:
[1] = test system: field violet (Viola arvensis); experiment: Post-emergent herbicidal evaluation on turf plots, wild violet control; assay type: in vivo
Method: (§1) Test compositions containing sulfentrazone (Dismiss™ Turf Herbicide), metsulfuron methyl (BLADE™ Selective Herbicide For Turfgrass) and mixtures thereof, were diluted with water to provide the appropriate test rate concentrations.
(§2) The size of each experimental turf plot was 5 feet by 10 feet. The application of each test composition was performed with a pressurized back-pack sprayer, calibrated to spray 30 gallons per acre. Three replications were made for each test rate along with an untreated control plot.
(§3) Test weeds were about 3 inches tall at the time of treatment. Control of ground ivy (Glechoma hederacea) and field violet (Viola arvensis) was evaluated at 6, 14, 28, 40 and 55 days after treatment (DAT) for each test rate. In order t to provide a measure of the effectiveness of a herbicide's performance weed control ratings were based on visual observations of the presence or absence of various weeds or of symptoms (necrosis, wilting, curling of leaves, discoloration etc.) on weeds compared to lack of symptoms. Ratings are based on the 0 to 100 rating system, where 0 equals no control and 100 equals complete control, which generally makes use of direct-percentage figures. In this system the standard basis for comparison is an untreated weedy check. Counts are made of each weed species found in the untreated area of the study. This provides a basis to give a precise representation of both weed infestation and degree of control provided by various chemical treatments. Counts are made on randomly selected areas which are generally 1 square foot to 1 square yard in size. Ratings are made for each weed species found in the untreated treatments. For example, a random area in an untreated plot has 10 yellow nutsedge plants per square foot equaling 0% control. A treated plot has only 1 yellow nutsedge plant found in the randomly selected area equaling 90% control.
(§4) Compositions of the present invention were tested for herbicidal efficacy in the manner of Example 1. Table A below summarizes the test data for ratios of sulfentrazone to metsulfuron methyl that are outside the scope of the present invention. The Colby equation expected values are also in Table A.

[2] = test system: ground ivy (Glechoma hederacea); experiment: Post-emergent herbicidal evaluation on turf plots, ground ivy control; assay type: in vivo
Method: as §1, §2, §3, §4

[3] = 0.01 lb/ac, 6 DAT, NIS 0.25% V/V
[4] = 0.01 lb/ac, 14 DAT, NIS 0.25% V/V
[5] = 0.01 lb/ac, 28 DAT, NIS 0.25% V/V
[6] = 0.01 lb/ac, 40 DAT, NIS 0.25% V/V
[7] = 0.01 lb/ac, 55 DAT, NIS 0.25% V/V
[8] = 0.02 lb/ac, 6 DAT, NIS 0.25% V/V
[9] = 0.02 lb/ac, 14 DAT, NIS 0.25% V/V
[10] = 0.02 lb/ac, 28 DAT, NIS 0.25% V/V
[11] = 0.02 lb/ac, 40 DAT, NIS 0.25% V/V
[12] = 0.02 lb/ac, 55 DAT, NIS 0.25% V/V
[13] = 0.04 lb/ac, 6 DAT, NIS 0.25% V/V
[14] = 0.04 lb/ac, 14 DAT, NIS 0.25% V/V
[15] = 0.04 lb/ac, 28 DAT, NIS 0.25% V/V
[16] = 0.04 lb/ac, 40 DAT, NIS 0.25% V/V
[17] = 0.04 lb/ac, 55 DAT, NIS 0.25% V/V

Cc1nn(-c2cc(NS(C)(=O)=O)c(Cl)cc2Cl)c(=O)n1C(F)F [Sulfentrazone, N-[2,4-dichloro-5-[4-difluoromethyl-4,5-dihydro-3-methyl-5-oxo-1H-1,2,4-triazol-1-yl]phenyl]methanesulfonamide]
% Control of Weeds, Wild Violet Control ([1]; 0.125 lb/ac, 6 DAT): 5% | % Control of Weeds, Wild Violet Control ([1]; 0.125 lb/ac, 14 DAT): 0% | % Control of Weeds, Wild Violet Control ([1]; 0.125 lb/ac, 28 DAT): 0% | % Control of Weeds, Wild Violet Control ([1]; 0.125 lb/ac, 40 DAT): 0% | % Control of Weeds, Wild Violet Control ([1]; 0.125 lb/ac, 55 DAT): 0% | % Control of Weeds, Wild Violet Control ([1]; 0.25 lb/ac, 6 DAT): 5% | % Control of Weeds, Wild Violet Control ([1]; 0.25 lb/ac, 14 DAT): 0% | % Control of Weeds, Wild Violet Control ([1]; 0.25 lb/ac, 28 DAT): 0% | % Control of Weeds, Wild Violet Control ([1]; 0.25 lb/ac, 40 DAT): 0% | % Control of Weeds, Wild Violet Control ([1]; 0.25 lb/ac, 55 DAT): 0% | % Control of Weeds, Wild Violet Control ([1]; 0.38 lb/ac, 6 DAT): 1.7% | % Control of Weeds, Wild Violet Control ([1]; 0.38 lb/ac, 14 DAT): 0% | % Control of Weeds, Wild Violet Control ([1]; 0.38 lb/ac, 28 DAT): 10% | % Control of Weeds, Wild Violet Control ([1]; 0.38 lb/ac, 40 DAT): 0% | % Control of Weeds, Wild Violet Control ([1]; 0.38 lb/ac, 55 DAT): 23.3% | % Control of Weeds, Ground Ivy Control ([2]; 0.125 lb/ac, 6 DAT): 11.7% | % Control of Weeds, Ground Ivy Control ([2]; 0.125 lb/ac, 14 DAT): 10% | % Control of Weeds, Ground Ivy Control ([2]; 0.125 lb/ac, 28 DAT): 0% | % Control of Weeds, Ground Ivy Control ([2]; 0.125 lb/ac, 40 DAT): 0% | % Control of Weeds, Ground Ivy Control ([2]; 0.125 lb/ac, 55 DAT): 0% | % Control of Weeds, Ground Ivy Control ([2]; 0.25 lb/ac, 6 DAT): 10% | % Control of Weeds, Ground Ivy Control ([2]; 0.25 lb/ac, 14 DAT): 13.3% | % Control of Weeds, Ground Ivy Control ([2]; 0.25 lb/ac, 28 DAT): 0% | % Control of Weeds, Ground Ivy Control ([2]; 0.25 lb/ac, 40 DAT): 0% | % Control of Weeds, Ground Ivy Control ([2]; 0.25 lb/ac, 55 DAT): 0% | % Control of Weeds, Ground Ivy Control ([2]; 0.38 lb/ac, 6 DAT): 11.7% | % Control of Weeds, Ground Ivy Control ([2]; 0.38 lb/ac, 14 DAT): 6.7% | % Control of Weeds, Ground Ivy Control ([2]; 0.38 lb/ac, 28 DAT): 3.3% | % Control of Weeds, Ground Ivy Control ([2]; 0.38 lb/ac, 40 DAT): 0% | % Control of Weeds, Ground Ivy Control ([2]; 0.38 lb/ac, 55 DAT): 0%

COC(=O)c1ccccc1S(=O)(=O)NC(=O)Nc1nc(C)nc(OC)n1 [Metsulfuron Methyl, methyl 2-[[[[(4-methoxy-6-methyl-1,3,5-triazin-2-yl)amino]carbonyl]amino]sulfonyl]benzoate]
% Control of Weeds, Wild Violet Control [1, 3]: 0% | % Control of Weeds, Wild Violet Control [1, 4]: 0% | % Control of Weeds, Wild Violet Control [1, 5]: 58.3% | % Control of Weeds, Wild Violet Control [1, 6]: 63.3% | % Control of Weeds, Wild Violet Control [1, 7]: 66.7% | % Control of Weeds, Wild Violet Control [1, 8]: 0% | % Control of Weeds, Wild Violet Control [1, 9]: 3.3% | % Control of Weeds, Wild Violet Control [1, 10]: 50% | % Control of Weeds, Wild Violet Control [1, 11]: 75% | % Control of Weeds, Wild Violet Control [1, 12]: 86.7% | % Control of Weeds, Wild Violet Control [1, 13]: 0% | % Control of Weeds, Wild Violet Control [1, 14]: 0% | % Control of Weeds, Wild Violet Control [1, 15]: 51.7% | % Control of Weeds, Wild Violet Control [1, 16]: 66.7% | % Control of Weeds, Wild Violet Control [1, 17]: 66.7% | % Control of Weeds, Ground Ivy Control [2, 3]: 5% | % Control of Weeds, Ground Ivy Control [2, 4]: 33% | % Control of Weeds, Ground Ivy Control [2, 5]: 83% | % Control of Weeds, Ground Ivy Control [2, 6]: 96% | % Control of Weeds, Ground Ivy Control [2, 7]: 97% | % Control of Weeds, Ground Ivy Control [2, 8]: 0% | % Control of Weeds, Ground Ivy Control [2, 9]: 20% | % Control of Weeds, Ground Ivy Control [2, 10]: 75% | % Control of Weeds, Ground Ivy Control [2, 11]: 94% | % Control of Weeds, Ground Ivy Control [2, 12]: 100% | % Control of Weeds, Ground Ivy Control [2, 13]: 0% | % Control of Weeds, Ground Ivy Control [2, 14]: 36.7% | % Control of Weeds, Ground Ivy Control [2, 15]: 90% | % Control of Weeds, Ground Ivy Control [2, 16]: 97% | % Control of Weeds, Ground Ivy Control [2, 17]: 100%
